Reference: patent publication US11919883B2, “Metalloenzyme inhibitor compounds” (Ji Xing Pharmaceuticals Hong Kong Limited, priority 2016, dated 2024)

Assays:
[1] = target: T1, recombinant human CYP11B2 (Homo sapiens, UniProt P19099); test: CYP11B2 enzyme assay, enzyme enriched microsomes from V79-4 cells, aldosterone by LC-MS; type: biochemical; conditions: IC50 ranges; run at Km of 11-deoxycorticosterone; read-out: hCYP11B2 IC50
T1 construct: made in house; host or cells: V79-4 cells (enzyme enriched microsomal fraction of cell lysates)
T1 sequence (P19099 25-503): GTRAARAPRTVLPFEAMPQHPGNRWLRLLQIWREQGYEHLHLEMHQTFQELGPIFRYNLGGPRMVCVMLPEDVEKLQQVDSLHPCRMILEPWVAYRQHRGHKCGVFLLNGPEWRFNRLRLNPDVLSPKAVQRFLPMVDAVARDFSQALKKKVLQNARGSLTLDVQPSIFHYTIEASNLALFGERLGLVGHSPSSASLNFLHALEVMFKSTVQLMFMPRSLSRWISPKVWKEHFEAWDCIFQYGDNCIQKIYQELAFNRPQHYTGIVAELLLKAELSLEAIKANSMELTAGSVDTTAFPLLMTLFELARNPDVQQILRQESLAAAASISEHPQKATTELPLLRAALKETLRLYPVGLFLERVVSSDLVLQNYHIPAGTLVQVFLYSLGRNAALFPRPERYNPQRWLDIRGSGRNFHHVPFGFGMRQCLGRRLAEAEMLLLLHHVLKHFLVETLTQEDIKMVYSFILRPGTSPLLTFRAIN
Protocol: (§1) An enzyme enriched microsomal fraction was prepared from cellular lysates and subsequently used as the enzyme source for determining inhibitor IC50s. […] Enzyme assays for inhibitor screening employed CYP11B2 and CYP11B1 enzyme enriched microsomes and were run at the Km of the respective substrates. Products of the enzyme reactions, aldosterone for CYP11B2 or cortisol for CYP11B1, were measured by LC-MS. Assays were run under conditions of less than 20% substrate turnover. Inhibitor IC50s were generated by determining the product formation in the absence or presence of inhibitor at various concentrations. In the absence of the test compound, the product formed (Pt) in each data set was defined as 100% activity. In the absence of enzyme, the product formed (Pb) in each data set was defined as 0% activity. The percent activity in the presence of each inhibitor was calculated according to the following equation: % activity=(P−Pb)/(Pt−Pb), where P=the product formed in the presence of the inhibitor.

[2] = target: T2, recombinant human CYP11B1 (Homo sapiens, UniProt P15538); test: CYP11B1 enzyme assay, enzyme enriched microsomes from V79-4 cells, cortisol by LC-MS; type: biochemical; conditions: IC50 ranges; run at Km of 11-deoxycortisol; read-out: hCYP11B1 IC50
T2 construct: made in house; host or cells: V79-4 cells (enzyme enriched microsomal fraction of cell lysates)
T2 sequence (P15538 25-503): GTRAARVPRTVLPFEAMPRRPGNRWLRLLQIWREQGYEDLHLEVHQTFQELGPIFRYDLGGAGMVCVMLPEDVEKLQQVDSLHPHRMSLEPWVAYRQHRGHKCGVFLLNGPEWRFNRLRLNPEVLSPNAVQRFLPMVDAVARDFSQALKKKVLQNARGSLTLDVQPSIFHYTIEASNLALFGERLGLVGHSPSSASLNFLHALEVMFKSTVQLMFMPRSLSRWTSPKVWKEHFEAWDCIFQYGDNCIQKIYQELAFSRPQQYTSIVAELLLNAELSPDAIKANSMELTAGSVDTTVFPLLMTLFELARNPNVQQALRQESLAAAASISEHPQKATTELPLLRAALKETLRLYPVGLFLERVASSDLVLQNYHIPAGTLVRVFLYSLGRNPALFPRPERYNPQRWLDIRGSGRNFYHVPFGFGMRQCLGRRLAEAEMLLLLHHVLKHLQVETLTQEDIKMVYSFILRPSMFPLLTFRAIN
Protocol: as §1

| Compound | IC50 [1] | IC50 [2] |
| --- | --- | --- |
| Fc1ccc2nc(-c3cncnc3)n(C3CC3)c2c1F [Example 2, 1-Cyclopropyl-6,7-difluoro-2-(pyrimidin-5-yl)-1H-benzo[d]imidazole] | 0.1 to 1 µM | 1 to 10 µM |
| N#Cc1ccc2nc(-c3cncnc3)n(C3CC3)c2c1 [Example 3, 1-Cyclopropyl-2-(pyrimidin-5-yl)-1H-benzo[d]imidazole-6-carbonitrile] | 0.001 to 0.1 µM | 1 to 10 µM |
| COc1ncncc1-c1nc2ccc(F)cc2n1C1CC1 [Example 6, 1-Cyclopropyl-6-fluoro-2-(4-methoxypyrimidin-5-yl)-1H-benzo[d]imidazole] | 0.1 to 1 µM | > 10 µM |
| CCc1ncncc1-c1nc2ccc(C#N)cc2n1C1CC1 [Example 8, 1-Cyclopropyl-2-(4-ethylpyrimidin-5-yl)-1H-benzo[d]imidazole-6-carbonitrile] | 0.001 to 0.1 µM | 1 to 10 µM |
| Fc1ccc2nc(-c3cncnc3Cl)n(C3CC3)c2c1 [Example 9, 2-(4-Chloropyrimidin-5-yl)-1-cyclopropyl-6-fluoro-1H-benzo[d]imidazole] | 0.001 to 0.1 µM | 1 to 10 µM |
| N#Cc1ncncc1-c1nc2ccc(F)cc2n1C1CC1 [Example 10, 5-(1-Cyclopropyl-6-fluoro-1H-benzo[d]imidazol-2-yl)pyrimidine-4-carbonitrile] | 0.001 to 0.1 µM | 1 to 10 µM |
| CNc1ncncc1-c1nc2ccc(F)cc2n1C1CC1 [Example 12, 5-(1-Cyclopropyl-6-fluoro-1H-benzo[d]imidazol-2-yl)-N-methylpyrimidin-4-amine] | 0.001 to 0.1 µM | 0.1 to 1 µM |
| CC(C)c1ncncc1-c1nc2ccc(F)cc2n1C1CC1 [Example 13, 1-Cyclopropyl-6-fluoro-2-(4-isopropylpyrimidin-5-yl)-1H-benzo[d]imidazole] | 0.001 to 0.1 µM | 1 to 10 µM |
| Fc1ccc2nc(-c3cncnc3C(F)F)n(C3CC3)c2c1 [Example 15, 1-Cyclopropyl-2-(4-(difluoromethyl)pyrimidin-5-yl)-6-fluoro-1H-benzo[d]imidazole] | 0.001 to 0.1 µM | 1 to 10 µM |
| CCc1ncncc1-c1nc2ccc(F)cc2n1CC [Example 16, 1-Ethyl-2-(4-ethylpyrimidin-5-yl)-6-fluoro-1H-benzo[d]imidazole] | 0.1 to 1 µM | 1 to 10 µM |
| CCc1ncncc1-c1nc2ccc(F)c(F)c2n1C1CC1 [Example 17, 1-Cyclopropyl-2-(4-ethylpyrimidin-5-yl)-6,7-difluoro-1H-benzo[d]imidazole] | 0.001 to 0.1 µM | 1 to 10 µM |
| Cc1ncc(-c2nc3ccc(F)cc3n2C2CC2)cn1 [Example 20, 1-Cyclopropyl-6-fluoro-2-(2-methylpyrimidin-5-yl)-1H-benzo[d]imidazole] | 1 to 10 µM | > 10 µM |
| Clc1ccc2nc(-c3cncnc3)n(C3CC3)c2c1 [Example 23, 6-Chloro-1-cyclopropyl-2-(pyrimidin-5-yl)-1H-benzo[d]imidazole] | 0.001 to 0.1 µM | 1 to 10 µM |
| COc1ccc2nc(-c3cncnc3)n(C3CC3)c2c1 [Example 25, 1-Cyclopropyl-6-methoxy-2-(pyrimidin-5-yl)-1H-benzo[d]imidazole] | 0.1 to 1 µM | > 10 µM |
| CS(=O)(=O)c1ccc2nc(-c3cncnc3)n(C3CC3)c2c1 [Example 26, 1-Cyclopropyl-6-(methylsulfonyl)-2-(pyrimidin-5-yl)-1H-benzo[d]imidazole] | 1 to 10 µM | > 10 µM |
| CC(C)c1ncncc1-c1nc2ccc(C#N)cc2n1C1CC1 [Example 28, 1-Cyclopropyl-2-(4-isopropylpyrimidin-5-yl)-1H-benzo[d]imidazole-6-carbonitrile] | 0.001 to 0.1 µM | 1 to 10 µM |
| CNc1ncncc1-c1nc2cc(F)c(F)cc2n1C1CC1 [Example 31, 5-(1-Cyclopropyl-5,6-difluoro-1H-benzo[d]imidazol-2-yl)-N-methylpyrimidin-4-amine] | 0.001 to 0.1 µM | 0.1 to 1 µM |
| Fc1ccc2nc(-c3cnc(Cl)nc3Cl)n(C3CC3)c2c1 [Example 35, 1-Cyclopropyl-2-(2,4-dichloropyrimidin-5-yl)-6-fluoro-1H-benzo[d]imidazole] | 1 to 10 µM | > 10 µM |
| Fc1cc2nc(-c3cncnc3NCC(F)(F)F)n(C3CC3)c2cc1F [Example 36, 5-(1-Cyclopropyl-5,6-difluoro-1H-benzo[d]imidazol-2-yl)-N-(2,2,2-trifluoroethyl)pyrimidin-4-amine] | 0.001 to 0.1 µM | 0.1 to 1 µM |
| CNc1ncncc1-c1nc2ccc(C#N)cc2n1C1CC1 [Example 39, 1-Cyclopropyl-2-(4-(methylamino)pyrimidin-5-yl)-1H-benzo[d]imidazole-6-carbonitrile] | 0.001 to 0.1 µM | 0.1 to 1 µM |
| CCCc1ncncc1-c1nc2ccc(C#N)cc2n1C1CC1 [Example 40, 1-Cyclopropyl-2-(4-propylpyrimidin-5-yl)-1H-benzo[d]imidazole-6-carbonitrile] | 0.001 to 0.1 µM | 0.1 to 1 µM |

Further lines, results first:

| IC50 [1] | IC50 [2] | Compound |
| --- | --- | --- |
| 0.001 to 0.1 µM | 1 to 10 µM | Cc1ncncc1-c1nc2ccc(F)cc2n1C1CC1 [Example 4, 1-Cyclopropyl-6-fluoro-2-(4-methylpyrimidin-5-yl)-1H-benzo[d]imidazole] |
| 0.001 to 0.1 µM | 1 to 10 µM | CCc1ncncc1-c1nc2ccc(F)cc2n1C1CC1 [Example 5, 1-Cyclopropyl-2-(4-ethylpyrimidin-5-yl)-6-fluoro-1H-benzo[d]imidazole] |
| 0.001 to 0.1 µM | 1 to 10 µM | Fc1cc2nc(-c3cncnc3)n(C3CC3)c2cc1F [Example 7, 1-Cyclopropyl-5,6-difluoro-2-(pyrimidin-5-yl)-1H-benzo[d]imidazole] |
| 0.001 to 0.1 µM | 1 to 10 µM | CCc1ncncc1-c1nc2ccc(Cl)cc2n1C1CC1 [Example 11, 6-Chloro-1-cyclopropyl-2-(4-ethylpyrimidin-5-yl)-1H-benzo[d]imidazole] |
| 0.001 to 0.1 µM | 1 to 10 µM | CCCc1ncncc1-c1nc2ccc(F)cc2n1C1CC1 [Example 14, 1-Cyclopropyl-6-fluoro-2-(4-propylpyrimidin-5-yl)-1H-benzo[d]imidazole] |
| 0.001 to 0.1 µM | 1 to 10 µM | CCn1c(-c2cncnc2C)nc2ccc(C#N)cc21 [Example 18, 1-Ethyl-2-(4-methylpyrimidin-5-yl)-1H-benzo[d]imidazole-6-carbonitrile] |
| 1 to 10 µM | > 10 µM | CC(=O)NCc1ncncc1-c1nc2ccc(F)cc2n1C1CC1 [Example 19, N-((5-(1-Cyclopropyl-6-fluoro-1H-benzo[d]imidazol-2-yl)pyrimidin-4-yl)methyl)acetamide] |
| 0.001 to 0.1 µM | 1 to 10 µM | Cc1ncncc1-c1nc2ccc(C#N)cc2n1C1CC1 [Example 21, 1-Cyclopropyl-2-(4-methylpyrimidin-5-yl)-1H-benzo[d]imidazole-6-carbonitrile] |
| 0.001 to 0.1 µM | 0.1 to 1 µM | CC(C)c1ncncc1-c1nc2cc(F)c(F)cc2n1C1CC1 [Example 22, 1-Cyclopropyl-5,6-difluoro-2-(4-isopropylpyrimidin-5-yl)-1H-benzo[d]imidazole] |
| 0.001 to 0.1 µM | 1 to 10 µM | CC(C)c1ncncc1-c1nc2ccc(Cl)cc2n1C1CC1 [Example 24, 6-Chloro-1-cyclopropyl-2-(4-isopropylpyrimidin-5-yl)-1H-benzo[d]imidazole] |
| > 10 µM | > 10 µM | Cc1ncnc(C)c1-c1nc2ccc(F)cc2n1C1CC1 [Example 29, 1-Cyclopropyl-2-(4,6-dimethylpyrimidin-5-yl)-6-fluoro-1H-benzo[d]imidazole] |
| 0.001 to 0.1 µM | 1 to 10 µM | CN(C)c1ncncc1-c1nc2cc(F)c(F)cc2n1C1CC1 [Example 32, 5-(1-Cyclopropyl-5,6-difluoro-1H-benzo[d]imidazol-2-yl)-N,N-dimethylpyrimidin-4-amine] |
| 0.001 to 0.1 µM | 1 to 10 µM | COCCNc1ncncc1-c1nc2cc(F)c(F)cc2n1C1CC1 [Example 33, 5-(1-Cyclopropyl-5,6-difluoro-1H-benzo[d]imidazol-2-yl)-N-(2-methoxyethyl)pyrimidin-4-amine] |
| 0.001 to 0.1 µM | 0.1 to 1 µM | CC(C)(C)Nc1ncncc1-c1nc2cc(F)c(F)cc2n1C1CC1 [Example 34, N-(tert-Butyl)-5-(1-cyclopropyl-5,6-difluoro-1H-benz[d]imidazol-2-yl)pyrimidin-4-amine] |
| 0.001 to 0.1 µM | 0.1 to 1 µM | Fc1cc2nc(-c3cncnc3NCCC(F)(F)F)n(C3CC3)c2cc1F [Example 37, 5-(1-Cyclopropyl-5,6-difluoro-1H-benzo[d]imidazol-2-yl)-N-(3,3,3-trifluoropropyl)pyrimidin-4-amine] |
